Assays:
Format in all cases: cell-based
[1] = tested on: HIV-1RF chronically infected Jurkat cells; test: Virus precipitation with MAbs after β-cyclodextrin treatment of infected cells
Description: Infected Jurkat cells (3×10^6) were treated with 20 mM hydroxypropyl-β-cyclodextrin (2-OH-βCD; Cyclodextrin Technologies Development, Inc.; Gainesville Fla.) in 3 ml of cRPMI or with cRPMI alone for 1 hr at 37° C. Cells were washed with PBS, then allowed to produce virus in 3 ml of cRPMI at 37° C. for 2 hr. Viral supernatants were clarified through a 0.45 Tm filter, and […] of MAb (10 mg/ml) in 5% NGS-PBS, and the mixture was incubated for 1 hr on ice. Pansorbin (SaC) (50 mg; Calbiochem; San Diego Calif.) was added to the solution and incubated for 20 min on ice. Complexes were washed sequentially with 10X and 1X PBS. Precipitated virus was lysed with […] of 1% Triton X-100 in cRPMI. Lysates were diluted, and p24 was quantitated by standard p24 ELISA.
The effects of 2-OH-βCD, a cellular cholesterol efflux inducing molecule, on the incorporation of host molecules into virions also was examined. By removing cholesterol, 2-OH-βCD is believed to partially perturb organized lipid rafts, resulting in dispersal of their components (Ilangumaran and Hoessli, Biochem. J. 335:433-440, 1998).

[2] = tested on: CCR5; test: Flow cytometry of CCR5 expression on primary T cells; conditions: primary T cells after treatment (19% before)
Description: Flow cytometry was performed as previously described (Orentas and Hildreth, supra, 1993). Briefly, 2×10^5 2-OH-βCD treated or untreated cells in 100 μl PBS containing 5% normal goat serum (NGS) were added to 100 μl of MAb (1-5 μg) and incubated 30 min on ice. In comparative experiments we prefixed the cells with 2% paraformaldehyde in PBS immediately after 2-OH-βCD treatment. Cells were washed with PBS, resuspended in 100 μl of PBS, 5% NGS containing 2 Tg of FITC conjugated-goat anti-mouse IgG (FITC-GAM) and incubated 1 h on ice. Cells were then washed with PBS and fixed with 2% paraformaldehyde followed by analysis on an EPICS Profile II flow cytometer.
Cholesterol depletion also promoted CXCR4 down-modulation by MAb-induced internalization. A possible explanation for the inhibition of syncytium formation by cholesterol depletion as described above is that CD4, CRs, or both are lost from the cell surface, for example, by extrusion from the membrane in vesicles after loss of cholesterol, or they could be internalized. To explore these possibilities, βCD treated cells were examined for expression of HIV receptors by flow cytometry. […] In contrast, cell surface expression of CXCR4 was reduced by 50% or more in all of the cells after 2-OH-βCD treatment (Table 1).

[3] = tested on: HIV-1RF; test: Free virus binding assay (transfer of class II MHC to Jurkat cells)
Description: Virus binding was measured through host cell antigen transfer as described (Liao et al., supra, 2000). Briefly, Jurkat cells (1×10^6) were washed with serum free RPMI-1640 medium (iRPMI) before incubation in 20 mM 2-OH-βCD in iRPMI or iRPMI alone for 1 hr at 37° C. Cells were then washed twice with iRPMI before adding 100 Tl of clarified HIV-1 supernatant (>10 ng/ml of p24 from PM1 cells) for 1 hr on ice. Excess virus was removed by washing twice with iRPMI. MAbs were then added at 20 ug/ml in 5% NGS/PBS and allowed to incubate for 1 h on ice before washing with iRPMI. FITC-GAM (10 ug/ml) was then added for 45 min on ice before washing with iRPMI. Cells were then fixed with 2% paraformaldehyde followed by analysis on an EPICS Profile II flow cytometer.
The possibility that βCD treatment affected virus binding or interactions between gp120 and CD4 or CRs was examined. In order to measure virus binding to cells, a flow cytometry assay was used that measures the transfer of host cell class II MHC proteins to class II MHC-negative cells by HIV virions, which incorporate large numbers of these proteins into their lipid envelopes. […] Class II MHC-negative Jurkat cells were used as target cells in the HIV binding assay. As a positive control for flow cytometry analysis, class I MHC molecules were probed on the Jurkat cells, which were stained equally well with MAb against this protein before and after 2-OH-βCD treatment (Table 3). When HIV-1RF from class II MHC-positive PM1 cells was added to untreated Jurkat cells, class II MHC MAb mean channel fluorescence increased from 1.0 to 7.8 relative fluorescence units, while the percentage of positive cells increased from 3.0% to 55.4% (Table 3). 2-OH-βCD treatment of the cells reduced virus binding by 70%, as determined by mean channel fluorescence of the anti-class II MHC mAb.
HIV binding to Jurkat cells (control and 2-OH-βCD-treated) was measured by transfer of class II MHC molecules. MAbs used were MHM.5 (anti-class I MHC), positive control; MHM.33 (anti-class II MHC). “MCF” indicates mean channel fluorescence. “% Pos” indicates percent positive cells. “ND” indicates not determined.

[4] = infected Jurkat cells treated with 20 mM for 1 hr at 37° C, P<0.05

2-hydroxypropyl-β-cyclodextrin [2-OH-βCD]
Overall cellular release of p24 ([1]; infected Jurkat cells after treatment): increased
CD45 capture of HIV-1 ([1]; infected Jurkat cells treated with 20 mM for 1 hr at 37° C): remained mostly unaffected
Capture of HIV-1 by MAb against CD59, percentage of total p24 [1, 4]: decreased substantially
Capture of HIV-1 by MAb against gp41, percentage of total p24 [1, 4]: decreased substantially
Decrease in capture of HIV-1 through Thy-1 ([1]; infected Jurkat cells treated with 20 mM for 1 hr at 37° C, P=0.08): not statistically significant
CCR5 expression, cells staining positive [2]: 8%
Reduction of virus binding, by mean channel fluorescence of the anti-class II MHC mAb ([3]; Jurkat cells treated with 20 mM): 70%
MHM5 (anti-class I MHC) % Pos ([3]; treated Jurkat cells, HIVRF): 100%
MHM5 (anti-class I MHC) MCF ([3]; treated Jurkat cells, HIVRF): 167.8 MCF
MHM33 (anti-class II MHC) % Pos ([3]; treated Jurkat cells, HIVRF): 26.0%
MHM33 (anti-class II MHC) MCF ([3]; treated Jurkat cells, HIVRF): 2.4 MCF
IgG1 % Pos ([3]; treated Jurkat cells, no virus): 3.4%
IgG1 MCF ([3]; treated Jurkat cells, no virus): 0.7 MCF
MHM5 (anti-class I MHC) % Pos ([3]; treated Jurkat cells, no virus): 100%
MHM5 (anti-class I MHC) MCF ([3]; treated Jurkat cells, no virus): 165 MCF
MHM33 (anti-class II MHC) % Pos ([3]; treated Jurkat cells, no virus): 3.3%
MHM33 (anti-class II MHC) MCF ([3]; treated Jurkat cells, no virus): 0.7 MCF

— patent publication US7589080B2, “β-cyclodextrin compositions, and use to prevent transmission of sexually transmitted diseases” (priority 2000, dated 2009)
